Source: patent EP4745138A1, “THIO-GLUTARIMIDO ISOINDOLINONE DERIVATIVE, BIFUNCTIONAL PROTEIN DEGRADER CONTAINING SAME, AND USES THEREOF” (Gluetacs Therapeutics (Shanghai) Co., Ltd., priority 2023, dated 2025)
Read-outs that look alike come from different tables or passages of the source.

Legend:
[1] = biological target: T1, human Cereblon WT GST-tagged protein (Homo sapiens, UniProt Q96SW2); assay: CRBN-binding affinity, HTRF (CEREBLON BINDING kit); conditions: for inhibition at 0.5 µM: read-out: Inhibition Rate at 0.5 µM (%); for inhibition at 2 µM: read-out: Inhibition Rate at 2 µM (%)
T1 construct: purchased CISBIO 64BDCRBNPEH
T1 sequence (Q96SW2 whole entry): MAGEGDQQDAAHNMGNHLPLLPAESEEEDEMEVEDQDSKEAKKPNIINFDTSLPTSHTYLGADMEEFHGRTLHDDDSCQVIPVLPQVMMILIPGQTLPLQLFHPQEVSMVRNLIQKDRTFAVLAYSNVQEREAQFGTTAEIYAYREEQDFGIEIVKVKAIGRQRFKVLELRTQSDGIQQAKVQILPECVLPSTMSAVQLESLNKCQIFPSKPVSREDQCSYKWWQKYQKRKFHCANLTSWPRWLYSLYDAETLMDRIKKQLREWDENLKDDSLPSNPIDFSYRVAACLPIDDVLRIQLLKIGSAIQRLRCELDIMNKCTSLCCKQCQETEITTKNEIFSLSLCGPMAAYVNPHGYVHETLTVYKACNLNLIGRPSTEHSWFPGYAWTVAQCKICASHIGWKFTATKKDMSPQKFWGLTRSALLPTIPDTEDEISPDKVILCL
Procedure, shortened: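 cpd (final 2 µM, 0.5 µM; diluent #9 1X) + GST-CRBN WT + thalidomide-Red/anti-GST Eu mix; HTRF readout. Blanks: diluent + PROTAC binding buffer + detection mix.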

CDK9 = biological target: T2, CDK9 (Homo sapiens, UniProt P50750); assay: Western blot, target protein degradation in MDA-MB-231 Cell; type: cell-based; conditions: substrate protein remaining %, treated at 500 nM and 50 nM, 24 hours
T2 construct: endogenous in cells; host or cells: MDA-MB-231
T2 sequence (P50750 whole entry): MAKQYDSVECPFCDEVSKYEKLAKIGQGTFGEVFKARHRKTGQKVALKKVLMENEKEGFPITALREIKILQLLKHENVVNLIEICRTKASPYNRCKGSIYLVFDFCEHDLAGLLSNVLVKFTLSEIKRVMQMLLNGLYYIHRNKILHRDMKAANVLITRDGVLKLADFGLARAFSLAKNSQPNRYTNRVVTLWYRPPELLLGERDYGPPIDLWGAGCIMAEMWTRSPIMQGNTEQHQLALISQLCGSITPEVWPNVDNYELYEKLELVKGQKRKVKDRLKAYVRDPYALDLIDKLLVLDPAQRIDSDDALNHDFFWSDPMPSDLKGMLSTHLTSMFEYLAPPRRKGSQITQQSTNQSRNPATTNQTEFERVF
Protocol: Conventional Western blot assay was performed to evaluate the effects of the compounds of the present disclosure on the expression of target proteins in cells.
(1) Cell Seeding and Protein Harvesting: The selected cells were processed according to the cell seeding procedure and protein harvesting procedure in Table II-2. Table II-2 Cell Seeding and Protein Harvesting Procedures
(2) To the collected supernatant, 5X SDS sample loading buffer was added, followed by denaturation at 95°C for 5 minutes. The denatured samples were then separated by SDS-PAGE electrophoresis on a polyacrylamide gel. Proteins were transferred to a nitrocellulose membrane (0.45 µm NC membrane), blocked with blocking buffer at room temperature for 1 hour, and subjected to antibody incubation and development procedures according to the antibody manufacturer's instructions (Cell Signaling Technology).
Half-Maximal Degradation Concentration value (the drug concentration required for degrading proteins by 50%, abbreviated as DC50) reads method: comparing the grayscale values of Western blot bands from drug-treated samples with those from blank DMSO-treated controls, and identifying the drug concentration range at which the grayscale value is half that of the DMSO-treated control bands.
DC50 values can be calculated using ImageJ software to measure grayscale values of Western blot bands from drug-treated samples. The concentration-response curve is fitted to estimate the drug concentration corresponding to half the grayscale value.
Target protein remaining (%) refers to the percentage of target protein remaining in cells after treatment with protein degrader compounds.
Calculation method for target protein remaining (%): Use ImageJ software to measure grayscale values of Western blot bands from drug (protein degrader)-treated samples. The grayscale value of drug-treated bands is divided by that of internal control protein bands, and the resulting quotient is normalized to obtain the relative percentage of remaining target protein after protein degrader treatment. Target protein degradation rate(%) = 1−target protein remaining(%). [formula]

MV-4-11 = assay: Tumor cell proliferation inhibition (CellTiter-Meiluncell Luminescent Cell Viability Assay); type: cell-based; conditions: Homo sapiens, 96 hours; for inhibition at 0.01 µM: MV4-11, 10 nM, read-out: Inhibition Rate at 10 nM (%); for inhibition at 0.5 µM: MV4-11, 500 nM, read-out: Inhibition Rate at 500 nM (%)
Procedure, shortened: (§1)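 Following overnight seeding, tumor cells received serial compound dilutions to final levels that included 10 nM and 500 nM. Viability was assessed by luminescence at the end of the specified exposure time. Cultures were kept at 37°C with 5% CO2.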

MM.1S = assay: as above; type: cell-based; conditions: Homo sapiens, MM1.S, MM.1S, 96 hours; for inhibition at 0.01 µM: 10 nM, read-out: Inhibition Rate at 10 nM (%); for inhibition at 0.5 µM: 500 nM, read-out: Inhibition Rate at 500 nM (%)
Procedure, shortened: as §1

SW620 = assay: as above; type: cell-based; conditions: Homo sapiens, 96 hours, Table I-6, IRAK4 inhibitors
Procedure, shortened: as §1

JEKO-1 = assay: as above; type: cell-based; conditions: Homo sapiens, 96 hours, Table I-6, IRAK4 inhibitors
Procedure, shortened: as §1

| inhibition at 0.5 µM [1] [%] | inhibition at 2 µM [1] [%] | SMILES | Degradation of substrate protein CDK9 (CDK9) | inhibition at 0.01 µM (MV-4-11; Table I-7, CDK9 inhibitors) [%] | inhibition at 0.5 µM (MV-4-11; Table I-7, CDK9 inhibitors) [%] | other results |
| --- | --- | --- | --- | --- | --- | --- |
| 53 to 60 | 80 to 100 | N#CC1(CNc2cccc(-c3cc(NC4CCN(Cc5ccc6c(c5)C(=S)N(C5CCC(=O)NC5=O)C6)CC4)ncc3Cl)n2)CCOCC1 (stereo not drawn) [GT-08752, 4-(((5'-chloro-2'-((1-((2-(2,6-dioxopiperidin-3-yl)-3-thioxoisoindolin-5-yl)methyl)piperidin-4-yl)amino)-[2,4'-bipyridin]-6-yl)amino)methyl)tetrahy dro-2H-pyran-4-carbonitrile] | A (0% ≤ substrate protein remaining % ≤ 80%) | 10 to 20 | 70 to 80 | – |
| 60 to 80 | 80 to 100 | Cn1ncc(-c2nc(NC3CCN(Cc4ccc5c(c4)CN(C4CCC(=O)NC4=O)C5=S)CC3)ncc2Cl)c1CC1CC1 (stereo not drawn) [GT-08682, 3-(5-((4-((5-chloro-4-(5-(cyclopropylmethyl)-1-methyl-1H-pyrazol-4-yl)pyrimidin-2-yl)amino)piperidin-1-yl)methyl)-1-thioxoisoindolin-2-yl)piperidine-2,6-dione] | A (0% ≤ substrate protein remaining % ≤ 80%) | 30 to 40 | 60 to 70 | inhibition at 0.01 µM (MM.1S; Table I-7, CDK9 inhibitors): 10 to 20%; inhibition at 0.5 µM (MM.1S; Table I-7, CDK9 inhibitors): 50 to 60% |
| 30 to 40 | 60 to 80 | O=C1CCC(N2Cc3cc(CN4CCC(n5cc(NC(=O)c6coc(-c7ccnc(NCC8CC8)c7)n6)c(C(F)F)n5)CC4)ccc3C2=S)C(=O)N1 (stereo not drawn) [GT-05286, 2-(2-((cyclopropylmethyl)amino)pyridin-4-yl)-N-(3-(difluoromethyl)-1-(1-((2-(2,6-dioxopiperidin-3-yl)-1-thioxoisoindolin-5-yl)methyl)piperidin-4-yl)-1H-pyrazol-4-yl)oxazole-4-carboxamide] | – | – | – | inhibition at 0.01 µM (MV-4-11; Table I-6, IRAK4 inhibitors): 80 to 100%; inhibition at 0.5 µM (MV-4-11; Table I-6, IRAK4 inhibitors): 80 to 100%; inhibition at 0.01 µM (SW620; SW-620, 10 nM, read-out: Inhibition Rate at 10 nM (%)): 60 to 70%; inhibition at 0.5 µM (SW620; SW-620, 500 nM, read-out: Inhibition Rate at 500 nM (%)): 70 to 80%; inhibition at 0.01 µM (MM.1S; Table I-6, IRAK4 inhibitors): 50 to 60%; inhibition at 0.5 µM (MM.1S; Table I-6, IRAK4 inhibitors): 80 to 100%; inhibition at 0.01 µM (JEKO-1; 10 nM, read-out: Inhibition Rate at 10 nM (%)): 10 to 20%; inhibition at 0.5 µM (JEKO-1; 500 nM, read-out: Inhibition Rate at 500 nM (%)): 80 to 100% |
| 53 to 60 | 80 to 100 | Cn1ncc(-c2nc(NC3CCN(Cc4cccc5c4CN(C4CCC(=O)NC4=O)C5=S)CC3)ncc2Cl)c1CC1CC1 (stereo not drawn) [GT-08686, 3-(4-((4-((5-chloro-4-(5-(cyclopropylmethyl)-1-methyl-1H-pyrazol-4-yl)pyrimidin-2-yl)amino)piperidin-1-yl)methyl)-1-thioxoisoindolin-2-yl)piperidine-2,6-dione] | A (0% ≤ substrate protein remaining % ≤ 80%) | 50 to 60 | 80 to 100 | inhibition at 0.01 µM (MM.1S; Table I-7, CDK9 inhibitors): 0 to 5%; inhibition at 0.5 µM (MM.1S; Table I-7, CDK9 inhibitors): 80 to 100% |
| 53 to 60 | 80 to 100 | N#CC1(CNc2nc(-c3cc(NC4CCN(Cc5cccc6c5CN(C5CCC(=O)NC5=O)C6=S)CC4)ncc3Cl)cs2)CCOCC1 (stereo not drawn) [GT-08685, 4-(((4-(5-chloro-2-((1-((2-(2,6-dioxopiperidin-3-yl)-1-thioxoisoindolin-4-yl)methyl)piperidin-4-yl)amino)pyridin-4-yl)thiazol-2-yl)amino)methyl)tetrahy dro-2H-pyran-4-carbonitrile] | A (0% ≤ substrate protein remaining % ≤ 80%) | – | – | – |
| 30 to 40 | 60 to 80 | N#CC1(CNc2cccc(-c3cc(NC4CCN(Cc5cccc6c5CN(C5CCC(=O)NC5=O)C6=S)CC4)ncc3Cl)n2)CCOCC1 (stereo not drawn) [GT-08687, 4-(((5'-chloro-2'-((1-((2-(2,6-dioxopiperidin-3-yl)-1-thioxoisoindolin-4-yl)methyl)piperidin-4-yl)amino)-[2,4'-bipyridin]-6-yl)amino)methyl)tetrahy dro-2H-pyran-4-carbonitrile] | A (0% ≤ substrate protein remaining % ≤ 80%) | – | – | – |

The remaining lines, values behind:

| SMILES | inhibition at 0.5 µM [1] [%] | inhibition at 2 µM [1] [%] | Degradation of substrate protein CDK9 (CDK9) | inhibition at 0.01 µM (MV-4-11; Table I-7, CDK9 inhibitors) [%] | inhibition at 0.5 µM (MV-4-11; Table I-7, CDK9 inhibitors) [%] | other results |
| --- | --- | --- | --- | --- | --- | --- |
| O=C1CCC(N2Cc3cc(CN4CCN(c5ccc(CC(=O)Nc6cc(C7CCC7)[nH]n6)cc5)CC4)ccc3C2=S)C(=O)N1 (stereo not drawn) [GT-08684, N-(5-cyclobutyl-1H-pyrazol-3-yl)-2-(4-(4-((2-(2,6-dioxopiperidin-3-yl)-1-thioxoisoindolin-5-yl)methyl)piperazin-1-yl)phenyl)acetamide] | 60 to 80 | 80 to 100 | A (0% ≤ substrate protein remaining % ≤ 80%) | – | – | – |
| O=C1CCC(N2Cc3c(CN4CCN(c5ccc(CC(=O)Nc6cc(C7CCC7)[nH]n6)cc5)CC4)cccc3C2=S)C(=O)N1 (stereo not drawn) [GT-08688, N-(5-cyclobutyl-1H-pyrazol-3-yl)-2-(4-(4-((2-(2,6-dioxopiperidin-3-yl)-1-thioxoisoindolin-4-yl)methyl)piperazin-1-yl)phenyl)acetamide] | 60 to 80 | 80 to 100 | A (0% ≤ substrate protein remaining % ≤ 80%) | 40 to 50 | 50 to 60 | – |
| N#CC1(CNc2cccc(-c3cc(NC4CCN(Cc5ccc6c(c5)CN(C5CCC(=O)NC5=O)C6=S)CC4)ncc3Cl)n2)CCOCC1 (stereo not drawn) [GT-08683, 4-(((5'-chloro-2'-((1-((2-(2,6-dioxopiperidin-3-yl)-1-thioxoisoindolin-5-yl)methyl)piperidin-4-yl)amino)-[2,4'-bipyridin]-6-yl)amino)methyl)tetrahy dro-2H-pyran-4-carbonitrile] | 40 to 53 | 80 to 100 | A (0% ≤ substrate protein remaining % ≤ 80%) | 50 to 60 | 50 to 60 | – |
| O=C1CCC(N2Cc3ccc(CN4CCN(c5ccc(CC(=O)Nc6cc(C7CCC7)[nH]n6)cc5)CC4)cc3C2=S)C(=O)N1 (stereo not drawn) [GT-08753, N-(5-cyclobutyl-1H-pyrazol-3-yl)-2-(4-(4-((2-(2,6-dioxopiperidin-3-yl)-3-thioxoisoindolin-5-yl)methyl)piperazin-1-yl)phenyl)acetamide] | 60 to 80 | 80 to 100 | A (0% ≤ substrate protein remaining % ≤ 80%) | – | – | – |
| N#CC1(CNc2nc(-c3cc(NC4CCN(Cc5ccc6c(c5)CN(C5CCC(=O)NC5=O)C6=S)CC4)ncc3Cl)cs2)CCOCC1 (stereo not drawn) [GT-08681, 4-(((4-(5-chloro-2-((1-((2-(2,6-dioxopiperidin-3-yl)-1-thioxoisoindolin-5-yl)methyl)piperidin-4-yl)amino)pyridin-4-yl)thiazol-2-yl)amino)methyl)tetrahy dro-2H-pyran-4-carbonitrile] | 53 to 60 | 80 to 100 | A (0% ≤ substrate protein remaining % ≤ 80%) | – | – | – |
